Each structure is given as a SMILES string. “And” between values parts separate entries of the source, which are not always exact repeats. Identical values can stand only once. “Also recorded” adds a separate entry of the source.

The test system of data set [1] is luciferase expression in Neuro2A-G cells (Neuro2A cells stably transfected to express luciferase). Briefly: In vitro transfection: luciferase gene silencing by SNALP encapsulating anti-luciferase siRNA. Format: cell-based. The following applies: SNALP with anti-luciferase siRNA; for knockdown in gene expression (luciferase) versus control SNALP containing mismatch siRNA: Neuro2A cells stably expressing luciferase, 48 hours; for luciferase expression relative to untreated control: after 48 hours. The protocol: In vitro Transfection: Cells were cultured in MEM (Invitrogen) containing 10% fetal bovine serum (FBS) (CanSera) and 0.25 mg/mL G418 (Invitrogen). Neuro2A-G cells (Neuro2A cells stably transfected to express luciferase [R. E. Kingston. in Current Protocols in Molecular Biology, Vol. 2, pp. 9.1.4-9.1.9, John Wiley & Sons, Inc. (1997)]) were plated at a concentration of 4×10^4 cells per well in 24-well plates and grown overnight. Cells were treated with SNALP at doses of 0.0625-1.0 μg/mL nucleic acid (AntiLuc Active or Mismatch Control) and incubated for 48 hours at 37° C. and 5% CO2. Cells were then washed with PBS and lysed with 200 μL 250 mM sodium phosphate containing 0.1% Triton X-100. The luciferase activity for each well was determined using Luciferase Reagent (Promega) and a standard luciferase protein (Roche). The luminescence for each was measured using a Berthold MicroLumatPlus LB96V plate luminometer. The resulting luciferase activity was then normalized for the amount of protein using the Micro BCA assay kit (Pierce). Luciferase knockdown relative to a control was then determined for each system.
This example describes experiments comparing expression of nucleic acids following in vitro transfection of Neuro2A cells with SNALP comprising: (1) DODAC, DODMA, or DLinDMA; (2) PEG-C-DMA; and (3) an siRNA duplex directed against luciferase encapsulated in the SNALP (i.e., siRNA comprising the following sequence: […] (SEQ ID NO:1) and targeting the DNA sequence complementary to: […] (SEQ ID NO:3)). Neuro2A cells were stably transfected with a plasmid encoding luciferase under the control of the CMV promoter (pLO55). The stably transfected cells were then transfected with SNALP comprising: 15, 20, 25, 30, 35, or 40% of DODAC, DODMA, or DLinDMA; 2% PEG-C-DMA, and an siRNA duplex directed against luciferase encapsulated in the SNALP. Luciferase protein expression was measured 48 hours after transfection with SNALP.
The ability of SNALP containing each of the four cationic lipids (i.e., DSDMA, DODMA, DLinDMA, and DLenDMA) to effect gene silencing in stably transfected Neuro2A cells was evaluated. Neuro2A cells stably transfected to express the luciferase were treated with SNALP containing anti-luciferase siRNA for 48 hours. Gene-silencing efficiency was evaluated by comparing the remaining luciferase activity in these cells to that remaining in cells treated with control SNALP containing mismatch siRNA.

A further data set deals with Neuro2A cells. Description: Cellular uptake of 3H-CHE-labeled SNALP. Format: cell-based. The conditions noted are these: 24 hours. The method, then: Cellular Uptake: SNALP were prepared incorporating the non-exchangeable tritium-labeled lipid cholesteryl hexadecyl ether (3H—CHE) (11.1 μCi/μmol total lipid) [Bally et al., in Liposome Technology, Vol. III, pp. 27-41, CRC Press (1993)]. Neuro2A cells (ATCC, VA, USA) were plated in 12 well plates at 1.6×10^5 cells per well in minimal essential media. The following day, media was removed and replaced with media containing radiolabelled SNALP at 0.5 μg/mL nucleic acid. After 24 hours, the media and unincorporated SNALP were removed, adherent cells gently washed 4 times with PBS, and then lysed with 600 μL Lysis Buffer (250 mM phosphate with 0.1% Triton X-100). The resulting cell lysate (500 μL) was added to glass scintillation vials containing 5 mL Picofluor 40 (Perkin Elmer) and ^3H—CHE was determined using a Beckman LS6500 scintillation counter (Beckman Instruments). The protein content of cell lysates was determined using the Micro BCA assay (Pierce). Uptake was expressed as a percentage of the total amount of activity applied to the cells per mg of cellular protein.
The extent to which formulations are taken up by cells was measured with SNALP incorporating ^3H-labeled CHE [Bally et al., in Liposome Technology, Vol. III, pp. 27-41, CRC Press (1993)]. […] Uptake is expressed as a percentage of the total activity applied to the cells. […]

Data set [2] is described as follows: SNALP particle diameter and polydispersity, Malvern Zetasizer. Format: physicochemical. The conditions noted are these: SNALP DSPC:Chol:PEG-C-DMA:Cationic Lipid 20:48:2:30 molar percent; mean of 3 experiments, error is standard deviation. The protocol:
(§1) SNALP Preparation: SNALP with a lipid composition of DSPC:Chol:PEG-C-DMA:Cationic Lipid (20:48:2:30 molar percent) were prepared using the spontaneous vesicle formation by ethanol dilution method [Jeffs et al., Pharm. Res. In Press (2005)]. The sample's were diafiltered against 100 mL of PBS (20 wash volumes) using a cross flow ultrafiltration cartridge (Amersham Biosciences, Piscataway, N.J.) and sterile filtered through Acrodisc 0.2 μm Posidyne filters (Pall Corp., Ann Arbor, Mich.). The siRNA concentration of final samples was determined using the RiboGreen assay and a siRNA standard curve. Particle size and polydispersity was determined using a Malvern Instruments Zetasizer 3000HSA (Malvern, UK). Nucleic acid encapsulation was determined using a RiboGreen assay, comparing fluorescence in the presence and absence of Triton X-100. RiboGreen fluorescence was measured using a Varian Eclipse Spectrofluorometer (Varian Inc) with λex=500 nm, λem=525 nm.
(§2) This example sets forth the physical properties of the SNALP formulations described herein. SNALP containing the various cationic lipids were prepared as described and encapsulated RNA and particle size assessed (Table 1 below). […] Polydispersity of all formulations was low, indicating a narrow distribution of particle size. RNA encapsulation in the final particles was 84-85% of the total.
(§3) Percentage Encapsulation was determined using the RiboGreen fluorescence assay to measure the amount of encapsulated nucleic acid relative to the total nucleic acid present. Particle diameter and polydispersity was measured using a Malvern Zetasizer. Values are the mean of 3 separate experiments, the error is standard deviation.

Data set [3] can be described thus: Nucleic acid encapsulation in SNALP, RiboGreen fluorescence assay. It is filed as physicochemical. The following applies: SNALP DSPC:Chol:PEG-C-DMA:Cationic Lipid 20:48:2:30 molar percent, siRNA; mean of 3 experiments, error is standard deviation. The protocol: as §1, §2, §3
Data set [4] is described as follows: TNS assay, apparent pKa of cationic lipid incorporated in SNALP. The conditions noted are these: TNS fluorescence, pH varied from 4.5 to 9.5.
Description: TNS Assay: 20 μM of SNALP lipid and 6 μM of TNS were mixed in a fluorescence cuvette in 2 mL of 20 mM sodium phosphate, 25 mM citrate, 20 mM ammonium acetate and 150 mM NaCl, at a pH that was varied from 4.5 to 9.5. Fluorescence was determined at each pH using a Varian Eclipse Spectrofluorometer (Varian Inc) with settings of λex=322 nm, λem=431 nm. Fluorescence for each system at the various pH was then normalized to the value at pH 4.5. The pKa values are the point at which 50% of the molecules present are charged. By assuming that minimum fluorescence represents zero charge, and maximum fluorescence represents 100% charge, pKa can be estimated by measuring the pH at the point exactly half way between the values of minimum and maximum charge.
TNS is electrostatically attracted to positively charged membranes. Subsequent adsorption to the lipid membrane results in the immediate environment of the TNS becoming more lipophilic, removing the water molecules that otherwise quench TNS fluorescence. Since TNS is more readily absorbed by positively charged membranes, TNS fluorescence is an indicator of positive membrane surface charge. The surface pKa values of each SNALP formulation were determined by varying the local pH in the presence of TNS.

Consider `CCCCCCCCCCCCCCCCCC[N+](C)(C)CCCCCCCCCCCCCCCCCC` [DSDMA, Distearyldimethylammonium], for which, in data set [1], the “knockdown in gene expression (luciferase) versus control SNALP containing mismatch siRNA” value is given as “no activity; also recorded: almost no capacity for effecting RNA interference” and the “luciferase expression relative to untreated control” value was “no effect on luciferase gene expression”. Further, the “cellular uptake of 3H-CHE-labeled SNALP” value with Neuro2A cells is listed as “greatest degree of uptake; also recorded: taken up most readily”. In data set [2], the “Diameter (nm)” value is 180 nm and 182 ± 11 nm; the Polydispersity is 0.15 ± 0.03. Further, the “% Encapsulation” value in data set [3] was 67% and 67 ± 3%. The “apparent (surface) pKa of cationic lipid in SNALP” value in data set [4] is roughly 7.6.

Consider `CC/C=C\C/C=C\C/C=C\CCCCCCCCOCC(CN(C)C)OCCCCCCCC/C=C\C/C=C\C/C=C\CC` (centres unmarked) [DLenDMA, 1,2-Dilinolenyloxy-N,N-dimethylaminopropane], for which, in data set [1], the “knockdown in gene expression (luciferase) versus control SNALP containing mismatch siRNA” value is listed as “slightly less efficient than those containing DLinDMA” and the “luciferase expression relative to untreated control” value came to 32%. The “cellular uptake of 3H-CHE-labeled SNALP” value in the data set on Neuro2A cells is listed as “particularly limited; also recorded: limited when compared to that of the DLinDMA formulation”. Also, in data set [2], the “Diameter (nm)” value is 132 ± 7 nm and the Polydispersity is given as 0.13 ± 0.03. For the same compound, the “% Encapsulation” value in data set [3] is 85 ± 1%. For the same compound, the “apparent (surface) pKa of cationic lipid in SNALP” value in data set [4] was determined as 6.7.

(Values after patent publication US7745651B2, “Cationic lipids and methods of use” (Protiva Biotherapeutics, Inc., priority 2004, dated 2010).)
